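Results reflect a 48-hour exposure of cells in 96-well plates to compound at five concentrations. At the TGI there is no net growth.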
Legend:
Assay in all cases: growth of human tumour cells (NCI), 48 h
[1] = tested on: 786-0 renal
[2] = tested on: A498 renal
[3] = tested on: A549 NSCLC
[4] = tested on: ACHN renal
[5] = tested on: CAKI-1 renal
[6] = tested on: CCRF-CEM leukemia
[7] = tested on: COLO 205 colon
[8] = tested on: DU-145 prostate
[9] = tested on: EKVX NSCLC
[10] = tested on: HCC-2998 colon
[11] = tested on: HCT-116 colon
[12] = tested on: HCT-15 colon
[13] = tested on: HOP-62 NSCLC
[14] = tested on: HOP-92 NSCLC
[15] = tested on: HS 578T breast
[16] = tested on: HT29 colon
[17] = tested on: IGROV1 ovarian
[18] = tested on: K-562 leukemia
[19] = tested on: KM12 colon
[20] = tested on: LOX IMVI melanoma
[21] = tested on: M14 melanoma
[22] = tested on: MALME-3M melanoma
[23] = tested on: MCF7 breast
[24] = tested on: MDA-MB-231 breast
[25] = tested on: MDA-MB-435
[26] = tested on: MDA-N
[27] = tested on: MOLT-4 leukemia
[28] = tested on: NCI-H226 lung
[29] = tested on: NCI-H23 lung
[30] = tested on: NCI-H460 lung
[31] = tested on: NCI-H522 lung
[32] = tested on: NCI/ADR-RES ovarian
[33] = tested on: OVCAR-3 ovarian
[34] = tested on: OVCAR-4 ovarian
[35] = tested on: OVCAR-5 ovarian
[36] = tested on: OVCAR-8 ovarian
[37] = tested on: PC-3 prostate
[38] = tested on: RPMI-8226 leukemia
[39] = tested on: RXF 393 renal
[40] = tested on: SF-268 CNS
[41] = tested on: SF-295 CNS
[42] = tested on: SF-539 CNS
[43] = tested on: SK-MEL-2 melanoma
[44] = tested on: SK-MEL-28 melanoma
[45] = tested on: SK-MEL-5 melanoma
[46] = tested on: SK-OV-3 ovarian
[47] = tested on: SN12C renal
[48] = tested on: SNB-19 CNS
[49] = tested on: SNB-75 CNS
[50] = tested on: SR leukemia
[51] = tested on: SW-620 colon
[52] = tested on: T-47D breast
[53] = tested on: TK-10 renal
[54] = tested on: UACC-257 melanoma
[55] = tested on: UACC-62 melanoma
[56] = tested on: UO-31 renal

COC(=O)CCC(NC(=O)OC(C)(C)C)C(=O)NC(Cc1ccc(NC(=O)CCCC(C)=O)cc1)C(=O)NC(CCC(=O)OC)C(=O)OC (configuration not stated)
TGI [1]: > 100 µM | TGI [2]: > 100 µM | TGI [3]: > 100 µM | TGI [4]: > 100 µM | TGI [5]: > 100 µM | TGI [6]: > 100 µM | TGI [7]: > 100 µM | TGI [8]: > 100 µM | TGI [9]: > 100 µM | TGI [10]: > 100 µM | TGI [11]: > 100 µM | TGI [12]: > 100 µM | TGI [13]: > 100 µM | TGI [14]: > 100 µM | TGI [15]: > 100 µM | TGI [16]: > 100 µM | TGI [17]: > 100 µM | TGI [18]: > 100 µM | TGI [19]: > 100 µM | TGI [20]: > 100 µM | TGI [21]: > 100 µM | TGI [22]: > 100 µM | TGI [23]: > 100 µM | TGI [24]: > 100 µM | TGI [25]: > 100 µM | TGI [26]: > 100 µM | TGI [27]: > 100 µM | TGI [28]: > 100 µM | TGI [29]: > 100 µM | TGI [30]: > 100 µM | TGI [31]: > 100 µM | TGI [32]: > 100 µM | TGI [33]: > 100 µM | TGI [34]: > 100 µM | TGI [35]: > 100 µM | TGI [36]: > 100 µM | TGI [37]: > 100 µM | TGI [38]: > 100 µM | TGI [39]: > 100 µM | TGI [40]: > 100 µM | TGI [41]: > 100 µM | TGI [42]: > 100 µM | TGI [43]: > 100 µM | TGI [44]: > 100 µM | TGI [45]: > 100 µM | TGI [46]: > 100 µM | TGI [47]: > 100 µM | TGI [48]: > 100 µM | TGI [49]: > 100 µM | TGI [50]: > 100 µM | TGI [51]: > 100 µM | TGI [52]: > 100 µM | TGI [53]: > 100 µM | TGI [54]: > 100 µM | TGI [55]: > 100 µM | TGI [56]: > 100 µM

CNc1ccc(C(=O)CC(O)CCC(C)C2OC(=O)CC(O)CC(=O)CC(O)CC(O)CC(O)CC(O)CC3(O)CC(O)C(C(=O)NCCN4CCOCC4)C(CC(OC4OC(C)C(O)C(N)C4O)/C=C/C=C/C=C/C=C\C=C/C=C/C=C/C2C)O3)cc1 (configuration not stated)
TGI [1]: > 100 µM | TGI [2]: 0.8 µM | TGI [11]: > 100 µM | TGI [14]: > 100 µM | TGI [17]: > 100 µM | TGI [19]: > 100 µM | TGI [25]: > 100 µM | TGI [26]: > 100 µM | TGI [27]: > 100 µM | TGI [28]: > 100 µM | TGI [34]: > 100 µM | TGI [36]: 36.8 µM | TGI [39]: > 100 µM | TGI [42]: > 100 µM | TGI [43]: 79.1 µM | TGI [48]: > 100 µM | TGI [49]: > 100 µM | TGI [51]: > 100 µM | TGI [52]: > 100 µM | TGI [54]: 1.94 µM | TGI [55]: > 100 µM

Source: PubChem BioAssay (NCI)
